# Changes are numbered by the printed parent chain. Read-outs that look alike come from different tables or passages of the source.
# Key:
# Assay type in all cases: cell-based
# [1] = molecular target: T1, chimeric OR5A2_variant 1 (Homo sapiens, UniProt Q8NGI9, F293L/H55R/I289L/M58T); test: Luciferase reporter concentration-response analysis on chimeric OR5A2_variant 1; conditions: CRE-luciferase, empty vector pEFIBRHO as control
# T1 construct: expressed in transfected cells; host or cells: HEK293T-RTP1A1/RTP2
# T1 sequence (Q8NGI9 with tags, fused parts or gaps H55R/M58T/I289L/F293L): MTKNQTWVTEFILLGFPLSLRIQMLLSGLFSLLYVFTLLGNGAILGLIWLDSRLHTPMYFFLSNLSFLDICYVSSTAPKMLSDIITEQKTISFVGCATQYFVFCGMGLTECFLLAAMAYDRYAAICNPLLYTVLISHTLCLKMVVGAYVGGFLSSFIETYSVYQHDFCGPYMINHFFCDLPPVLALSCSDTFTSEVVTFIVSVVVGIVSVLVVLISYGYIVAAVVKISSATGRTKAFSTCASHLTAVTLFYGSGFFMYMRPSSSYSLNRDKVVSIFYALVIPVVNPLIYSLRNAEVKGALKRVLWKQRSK
# Method: (§1) HEK293T-RTP1A1/RTP2 cells were maintained in minimal essential medium (EMEM, Lonza) containing 10% fetal bovine serum (M10). These cells were generated by transfecting HEK293T with an expression vector containing the sequences of the chaperone proteins RTP1A1 and RTP2 and a resistance gene to puromycin, using Lipofectamine 2000.
# (§2) Odorant molecules were diluted at a concentration of 1 mole/liter (M) into dimethyl sulfoxide (DMSO) to generate stock solutions.
# (§3) For concentration-response analysis, serial dilutions of the tested molecules were prepared from stock solutions in EMEM plated into 96-well plates.
# (§4) For the initial deorphanisation screening and dose-response analysis, a Luciferase-based gene reporter assay (Promega, Leiden, The Nederlands) was used. Briefly, cells were platted on Poly-D-lysine-coated 96-well and transfected with a plasmid containing the CRE-luciferase and a plasmid containing the olfactory receptor. Sixteen hours after transfection, the culture medium was replaced by serum-free EMEM containing the tested compounds at a determined concentration. After four hours of incubation at 37° C. degree, cells were lysed and processed for luminescence measurement. Luminescene emission was recorded. Results were expressed as luciferase activity (Relative […] Unit (RLU)) or as percentage of the response induced by 10 μM of the adenylate cyclase activator Forskolin. An empty plasmid is used as negative control.
# (§5) To test if the amino acids substitution could impact the musk sensitivity, and specificity and to validate the Krautwurst's model, luciferase assays were performed as described previously after transfection of the chimeric OR5A2_variant 1. Cells were treated with semi-logarithmic serial dilutions of musk compounds from the four structurally different groups described earlier.
# In each experiment, an empty vector was used as negative control (pEFIBRHO).
# [2] = molecular target: T2, OR5A2_variant 2 (Homo sapiens, UniProt Q8NGI9, P172L); test: Luciferase reporter concentration-response analysis on haplotype OR5A2_variant 2 (P172L); conditions: CRE-luciferase; empty vector pEFIBRHO as control
# T2 construct: (P172L, OR5A2_variant 2); expressed in transfected cells; host or cells: HEK293T-RTP1A1/RTP2
# T2 sequence (Q8NGI9 1-324 P172L): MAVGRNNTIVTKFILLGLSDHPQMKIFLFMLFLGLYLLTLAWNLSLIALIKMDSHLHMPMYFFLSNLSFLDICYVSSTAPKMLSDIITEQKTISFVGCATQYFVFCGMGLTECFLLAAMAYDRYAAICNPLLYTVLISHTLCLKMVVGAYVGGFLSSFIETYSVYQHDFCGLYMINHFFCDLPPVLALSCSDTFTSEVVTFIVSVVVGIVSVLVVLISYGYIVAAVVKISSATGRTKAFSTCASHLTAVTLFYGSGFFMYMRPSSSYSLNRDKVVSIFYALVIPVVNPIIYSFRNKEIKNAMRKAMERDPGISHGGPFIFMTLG
# Method: as §1, §2, §3, §4
# OR genes are highly variable, with many alleles resulting in differences in smell perception from person to person. These differences can be attributed to genetic variations like, for example, nucleotide polymorphisms. […] Amino acids alignment of the 2 haplotypes are represented in FIG. 4.
# To test if the substitution could impact the musk sensitivity, luciferase assays were performed as described previously after transfection of both OR5A2 variants. Cells were treated with semi-logarithmic serial dilutions of musk compounds from the four structurally different groups described earlier. In each experiment, an empty vector was used as negative control (pEFIBRHO).
# [3] = molecular target: T3, OR2A5 (Homo sapiens, UniProt Q96R48, A202S/A255T/I126V); test: Luciferase reporter concentration-response analysis on OR2A5; conditions: CRE-luciferase
# T3 construct: expressed in transfected cells; host or cells: HEK293T-RTP1A1/RTP2
# T3 sequence (Q96R48 1-311 I126V/A202S/A255T): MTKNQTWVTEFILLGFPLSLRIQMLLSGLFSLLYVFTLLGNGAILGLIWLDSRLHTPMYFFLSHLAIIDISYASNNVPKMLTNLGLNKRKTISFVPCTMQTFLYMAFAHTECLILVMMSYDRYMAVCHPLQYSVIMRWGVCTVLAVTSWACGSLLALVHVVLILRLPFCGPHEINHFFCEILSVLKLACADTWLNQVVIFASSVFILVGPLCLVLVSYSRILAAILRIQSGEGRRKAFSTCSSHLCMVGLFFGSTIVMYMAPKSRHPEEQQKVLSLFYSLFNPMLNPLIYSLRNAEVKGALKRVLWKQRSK
# Method: as §1, with “2000. The recombinant cell population, used in these experiments, was selected by adding 10 μg/ml of puromycin into the culture medium and subsequently subcloned (WO 2014/191047 A1).” for “2000.”
# as §2, §3, §4
# In 1998, Krautwurst and collaborators have provided a model system for the study of ligand specificity and structure-function relationships for olfactory receptors (Krautwurst et al., 1998 Cell 95, 917-26). […] Based on their publication, a chimeric OR5A2_variant 1 olfactory receptor was created containing the TM2-TM7 amino acid sequence of OR5A2_variant 1 flanked by the N-teminal and C-terminal sequence of the olfactory receptor OR2A5 (cf. SEQ ID NO: 12). This chimeric OR5A2_variant 1 receptor shared 86 percent identity with the native OR5A2_variant 1 receptor (FIG. 6A and SEQ ID NO: 10).
# as §5
# [4] = molecular target: T4, OR5A2_variant 1 (Homo sapiens, UniProt Q8NGI9); test: Luciferase reporter concentration-response analysis on OR5A2_variant 1; conditions: for activation of OR5A2 (OR5A2_variant 1), concentration-response: CRE-luciferase, semi-logarithmic serial dilutions, empty vector pEFIBRHO as control
# T4 construct: expressed in transfected cells; host or cells: HEK293T-RTP1A1/RTP2
# T4 sequence (Q8NGI9 1-324): T2 sequence (Q8NGI9 1-324 P172L) with L172P
# Method: as §1, §2, §3, §4
# (§6) 35 musk compounds from the four structurally different chemical groups previously described were tested in concentration-response analyses (Table 2). In each experiment, an empty vector was used as negative control (pEFIBRHO). […] Full results including the calculated EC50 are given in Table 2; “non active” represent negative experiments, no activation after testing.
# [5] = molecular target: T5, OR11A1 (Homo sapiens, UniProt Q9GZK7); test: Luciferase reporter concentration-response analysis on OR11A1
# T5 construct: expressed in transfected cells; host or cells: HEK293T-RTP1A1/RTP2
# T5 sequence (Q9GZK7 1-315): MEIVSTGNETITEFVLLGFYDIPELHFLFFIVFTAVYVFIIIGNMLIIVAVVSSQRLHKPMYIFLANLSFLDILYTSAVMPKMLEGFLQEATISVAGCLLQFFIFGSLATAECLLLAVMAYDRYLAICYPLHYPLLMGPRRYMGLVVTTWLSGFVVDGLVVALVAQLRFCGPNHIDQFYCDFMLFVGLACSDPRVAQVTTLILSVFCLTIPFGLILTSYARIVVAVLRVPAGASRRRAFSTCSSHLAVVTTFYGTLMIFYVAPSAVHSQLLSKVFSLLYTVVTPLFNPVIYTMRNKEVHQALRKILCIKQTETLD
# Method: as §1, §2, §3, §4, §6
# These compounds were tested in concentration-response analysis in luciferase assays, as described previously. In each experiment, an empty vector was used as negative control (pEFIBRHO).
# [6] = molecular target: T4, OR5A2_variant 1; test: Luciferase reporter deorphanisation screening of odorant libraries (891 compounds) on OR5A2; conditions: HEK293T-RTP1A1/RTP2 cells; each compound at 1 mM, 316 μM, 100 μM; hit = luciferase activity >= median + 2 standard deviations
# Method: as §1, §2
# For screening experiments, stock solutions of odorant molecules were diluted in EMEM disposed in 96-well plates.
# as §4
# [7] = molecular target: T6, OR5A1 (Homo sapiens, UniProt Q8NGJ0); test: Luciferase reporter concentration-response analysis on OR5A1; conditions: CRE-luciferase; empty vector pEFIBRHO as control
# T6 construct: expressed in transfected cells; host or cells: HEK293T-RTP1A1/RTP2
# T6 sequence (Q8NGJ0 1-315): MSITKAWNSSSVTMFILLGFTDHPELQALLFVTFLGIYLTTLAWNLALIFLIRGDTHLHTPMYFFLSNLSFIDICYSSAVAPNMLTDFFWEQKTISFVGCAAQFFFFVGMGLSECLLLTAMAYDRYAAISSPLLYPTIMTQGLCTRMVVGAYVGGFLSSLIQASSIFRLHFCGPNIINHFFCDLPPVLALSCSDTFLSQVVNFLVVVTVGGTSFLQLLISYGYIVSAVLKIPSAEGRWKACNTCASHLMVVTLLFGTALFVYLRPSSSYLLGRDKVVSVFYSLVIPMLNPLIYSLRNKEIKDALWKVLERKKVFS
# Method: as §1, with “2000. The recombinant cell population, used in these experiments, was selected by adding 10 μg/ml of puromycin into the culture medium and subsequently subcloned (WO 2014/191047 A1).” for “2000.”
# as §2, §3
# as §4, with “Briefly, cells were platted on Poly-D-lysine-coated 96-well and transfected with a plasmid containing the CRE-luciferase and a plasmid containing the olfactory receptor.” left out, “An empty plasmid is used as negative control.” left out
# [8] = molecular target: T7, OR5AN1 (Homo sapiens, UniProt Q8NGI8, E89G); test: Luciferase reporter concentration-response analysis on OR5AN1
# T7 construct: expressed in transfected cells; host or cells: HEK293T-RTP1A1/RTP2
# T7 sequence (Q8NGI8 1-311 E89G): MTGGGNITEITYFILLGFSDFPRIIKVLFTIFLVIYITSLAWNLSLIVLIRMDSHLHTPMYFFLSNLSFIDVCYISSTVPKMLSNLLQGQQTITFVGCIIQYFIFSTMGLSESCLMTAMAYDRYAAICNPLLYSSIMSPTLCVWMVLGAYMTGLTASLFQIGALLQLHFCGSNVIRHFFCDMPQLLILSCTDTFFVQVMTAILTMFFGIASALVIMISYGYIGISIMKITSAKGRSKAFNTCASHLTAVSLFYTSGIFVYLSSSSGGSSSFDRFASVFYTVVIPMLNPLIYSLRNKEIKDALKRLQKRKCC
# Method: as §1, with “2000. The recombinant cell population, used in these experiments, was selected by adding 10 μg/ml of puromycin into the culture medium and subsequently subcloned (WO 2014/191047 A1).” for “2000.”
# as §2, §3, §4
# In these analyses we also included ORs previously described as musk-specific receptors OR5AN1 (SEQ ID n° 7) (WO 2015/020158 A1, Shirasu et al. 2014 Neuron 81, 165-78, Sato-Akuhara N et al. 2016 J Neurosci. 36(16), 4482-91) and OR11A1 (SEQ ID n° 8) (WO 2016/201152 A1). […] Therefore, OR5A1 was included in the analyses. 35 musk compounds from the four structurally different chemical groups previously described were tested in concentration-response analyses (Table 2). In each experiment, an empty vector was used as negative control (pEFIBRHO). […] Full results including the calculated EC50 are given in Table 2; “non active” represent negative experiments, no activation after testing. […]
# [9] = concentration-response analysis, luciferase reporter, values given as negative (log) numbers, read-out: calculated EC50, OR5A2 (converted)
# [10] = CRE-luciferase, empty vector pEFIBRHO as control
Compound,"activation of chimeric OR5A2_variant 1, concentration-response [1]","activation of OR5A2_variant 2 (P172L), concentration-response [2]","activation of OR2A5, concentration-response [3]","activation of OR5A2 (OR5A2_variant 1), concentration-response [4]","EC50 [4, 9] [µM]","response of the OR of the invention (luciferase activity, hit) in library screening [6]",also measured
CC(=O)/C=C/C1=C(C)CCCC1(C)C [Beta-ionone],not able to activate,–,–,stimulated neither,–,–,"activation of chimeric OR5A2_variant 1, concentration-response ([1]; listed as beta-ionone): not activated; activation of OR5A1, concentration-response [7]: able to activate OR5A1 only; activation of OR5AN1, concentration-response [8, 10]: stimulated neither; activation of OR11A1, concentration-response [5, 10]: able to activate OR5A1 only"
C[C@H]1CC(C)(C)C2=C(C[C@@]3(C)O[C@H]3C2)C1(C)C [malaxone],–,–,–,–,–,respond specifically and exclusively,–
O=C1CCCCCCCCCCCC(=O)OCCO1 [Ethylene Brassylate],–,–,–,–,49,respond specifically and exclusively,"EC50 ([8]; concentration-response analysis, luciferase reporter, values given as negative (log) numbers, Non Active = no activation after testing, read-out: calculated EC50, OR5AN1 (converted)): 66.1 µM"

# Now from value to compound, other results behind:
"activation of chimeric OR5A2_variant 1, concentration-response [1]","activation of OR5A2_variant 2 (P172L), concentration-response [2]","activation of OR2A5, concentration-response [3]","activation of OR5A2 (OR5A2_variant 1), concentration-response [4]","EC50 [4, 9] [µM]","response of the OR of the invention (luciferase activity, hit) in library screening [6]",Compound,also measured
shows dose response curves,not activated,but not the OR2A5,shows dose response curves,17.8,–,CC1C(C)(C)C2=C(C(=O)CCC2)C1(C)C (stereo not shown) [Cashmeran],"EC50 ([5]; concentration-response analysis, luciferase reporter, values given as negative (log) numbers, Non Active = no activation after testing, read-out: calculated EC50, OR11A1 (converted)): 21.4 µM"
shows dose response curves,not activated,but not the OR2A5,shows dose response curves,–,respond specifically and exclusively,CC(OC(C)(C)COC(=O)C1CC1)C1CCCC(C)(C)C1 (stereo not shown) [Serenolide],EC50 [4]: 21.9 µM
